From patent US11020416B2, “Cancer chemotherapy employing halogenated analogs of thymidine” (priority 2015, dated 2021)
pIC50, pKi: −log10 of the molar value. Read-outs that look alike come from different tables or passages of the source.

How the values were obtained:
PARP1 [1] = molecular target: T1, PARP1 (Homo sapiens, UniProt P09874); assay: Michaelis-Menten kinetic analysis of PARP1 enzymatic activity in solution (FIG. 1); type: biochemical
Procedure: Cloned human PARP-1 (8 nanomolar) was incubated with 100 nanomolar dA/dT, 50 micrograms/milliliter histone Hi and varying concentrations (50, 150, 450 micromolar) of ^32P-NAD^+ in the absence and presence of inhibitor (50 micromolar) at physiological pH (7.3) as described (E. Kirsten, E. Kun, J. Mendeleyev, C. P. Ordahl, Methods in Molecular Biology 287 137 (2004) and Kun, 2004 op cit). Reactions were started by the addition of PARP-1 and incubated for 10 minutes at room temperature after which acid precipitable ^32P was determined.
Target sequence in this assay (P09874 whole entry): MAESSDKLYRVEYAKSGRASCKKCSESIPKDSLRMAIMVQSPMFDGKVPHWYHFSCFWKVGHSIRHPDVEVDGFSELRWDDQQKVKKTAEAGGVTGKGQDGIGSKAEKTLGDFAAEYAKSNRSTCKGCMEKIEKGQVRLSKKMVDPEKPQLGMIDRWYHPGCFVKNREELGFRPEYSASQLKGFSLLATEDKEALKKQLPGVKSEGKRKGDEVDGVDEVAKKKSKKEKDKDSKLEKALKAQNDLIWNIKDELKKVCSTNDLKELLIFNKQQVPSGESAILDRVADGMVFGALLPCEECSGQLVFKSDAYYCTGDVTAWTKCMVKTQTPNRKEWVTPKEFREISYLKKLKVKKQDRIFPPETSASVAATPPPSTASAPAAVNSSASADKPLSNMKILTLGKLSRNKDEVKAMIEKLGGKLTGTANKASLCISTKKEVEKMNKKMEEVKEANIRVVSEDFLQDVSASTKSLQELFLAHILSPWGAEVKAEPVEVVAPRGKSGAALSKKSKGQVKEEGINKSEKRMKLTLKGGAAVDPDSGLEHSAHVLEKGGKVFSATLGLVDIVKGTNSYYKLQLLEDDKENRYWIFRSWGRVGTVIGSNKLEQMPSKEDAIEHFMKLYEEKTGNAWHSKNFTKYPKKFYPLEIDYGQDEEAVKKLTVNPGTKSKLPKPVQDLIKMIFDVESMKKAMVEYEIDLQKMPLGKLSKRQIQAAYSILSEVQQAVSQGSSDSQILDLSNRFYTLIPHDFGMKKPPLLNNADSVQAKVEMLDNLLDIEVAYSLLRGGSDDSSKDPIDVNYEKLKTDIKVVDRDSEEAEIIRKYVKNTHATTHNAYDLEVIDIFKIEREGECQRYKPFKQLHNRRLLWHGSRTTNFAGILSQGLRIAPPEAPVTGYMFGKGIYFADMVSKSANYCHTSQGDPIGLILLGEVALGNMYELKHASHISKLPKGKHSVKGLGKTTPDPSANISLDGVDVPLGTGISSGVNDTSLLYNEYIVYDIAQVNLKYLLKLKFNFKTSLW

[2] = test system: Calu-6, a human lung carcinoma cell line; assay: 14-day culture of neoplastic cells with HAT, morphology and cell number (FIG. 2); type: cell-based; details: Calu-6, 10 micromolar, 14 days in culture (more than 300 without drug)
Excerpt: (§1) FIGS. 2A-D illustrate HAT-Pi effects on two neoplastic cell lines; a) Calu-6, a human lung carcinoma cell line; and, b) DU-145, a human prostate metastatic carcinoma cell line.
(§2) Additionally, the overall appearance of the cultures and the morphology of the surviving cells is altered in specific ways. First, the remaining (surviving) cells are tightly adherent to the surface of the culture dish giving them a “flattened” appearance. Second, neoplastic cell expansion is attributable to cytoplasmic growth, which leaves the smaller internal cell nuclei distinctive in outline. Third, many cell outlines are “ruffled” in some regions due to the presence of lamellipodia, plasmalemma projections that are the leading edges of cell expansion (open arrows in FIGS. 2B and 2D). Fourth, specialized cell-cell contact and communication regions are evident where the lamellipodia of two or more cells meet (closed arrows in FIGS. 2B and 2D). […] These characteristic features of HAT-treated neoplastic cells indicate that substrate-attachment-dependent survival and contact inhibition have both been restored in surviving neoplastic cells. […]

[3] = test system: DU-145, a human prostate metastatic carcinoma cell line; assay: as above; type: cell-based; details: DU-145, 10 micromolar, 14 days in culture (more than 300 without drug)
Excerpt: as §1, §2

PARP1 [4] = details: solution; Rankin, 1989; cited from earlier work
PARP1 [5] = molecular target: T2, PARP1 (Mus musculus, UniProt P11103); details: cultured 10T1/2 cells; Rankin, 1989; cited from earlier work
T2 construct: solution/cultured 10T1/2 cells; endogenous in cells; host or cells: cultured 10T1/2 cells
T2 sequence (P11103 whole entry): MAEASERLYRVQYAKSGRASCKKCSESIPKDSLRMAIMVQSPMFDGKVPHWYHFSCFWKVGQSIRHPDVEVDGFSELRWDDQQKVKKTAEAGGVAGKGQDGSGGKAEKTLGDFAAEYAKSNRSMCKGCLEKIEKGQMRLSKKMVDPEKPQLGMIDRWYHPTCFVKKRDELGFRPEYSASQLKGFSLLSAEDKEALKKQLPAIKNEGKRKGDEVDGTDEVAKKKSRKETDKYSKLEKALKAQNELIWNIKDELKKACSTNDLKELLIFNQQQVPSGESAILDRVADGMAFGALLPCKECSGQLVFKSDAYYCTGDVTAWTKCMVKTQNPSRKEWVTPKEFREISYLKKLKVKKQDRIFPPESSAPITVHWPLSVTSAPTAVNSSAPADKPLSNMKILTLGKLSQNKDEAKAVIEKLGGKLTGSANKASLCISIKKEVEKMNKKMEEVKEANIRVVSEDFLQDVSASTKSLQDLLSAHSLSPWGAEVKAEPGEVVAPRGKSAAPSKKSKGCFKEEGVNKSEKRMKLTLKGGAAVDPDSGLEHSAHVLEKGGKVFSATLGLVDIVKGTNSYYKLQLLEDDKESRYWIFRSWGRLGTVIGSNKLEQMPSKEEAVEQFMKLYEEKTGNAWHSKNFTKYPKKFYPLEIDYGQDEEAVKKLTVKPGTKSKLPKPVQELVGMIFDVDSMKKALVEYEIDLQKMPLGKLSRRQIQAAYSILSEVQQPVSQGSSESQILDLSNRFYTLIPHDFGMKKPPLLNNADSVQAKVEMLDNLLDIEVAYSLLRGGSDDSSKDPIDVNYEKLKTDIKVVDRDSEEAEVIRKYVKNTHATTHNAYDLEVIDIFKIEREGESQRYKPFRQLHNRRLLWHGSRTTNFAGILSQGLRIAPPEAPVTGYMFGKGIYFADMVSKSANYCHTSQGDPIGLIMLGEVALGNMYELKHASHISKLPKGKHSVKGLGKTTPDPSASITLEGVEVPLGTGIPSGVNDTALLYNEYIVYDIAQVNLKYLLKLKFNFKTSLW

PARP1 [6] = molecular target: T1, PARP1; details: solution; Pivazyan, 1992; cited from earlier work
Target sequence in this assay (P09874 whole entry, species assumed): as the sequence (P09874 whole entry) above

Unresectable Sarcoma = details: trial e, 1987, 5 patients, dose 1.3, iv, with radiation, multiple cycles up to 5 months; cited from earlier work
PARP1 [7] = molecular target: T1, PARP1; design: isolated HeLa cell nuclei; endogenous in cells; host or cells: isolated HeLa cell nuclei; details: 1 mM; Preiss, 1971; cited from earlier work
Target sequence in this assay (P09874 whole entry): as above

PARP1 [8] = molecular target: T1, PARP1; design: isolated HeLa cell nuclei; endogenous in cells; host or cells: isolated HeLa cell nuclei; details: 50 mM; Filetti, 1981; cited from earlier work
Target sequence in this assay (P09874 whole entry): as above

[9] = after infusion of bromodeoxyuridine or iododeoxyuridine; cited from earlier work
PARP1 [10] = molecular target: T1, PARP1; details: cited from earlier work
Target sequence in this assay (P09874 whole entry, species assumed): as the sequence (P09874 whole entry) above

[11] = cited from earlier work
HeLa cells = details: cell culture; Sumikawa 2005; cited from earlier work
[12] = schedule A, single oral dose 2.40 Grams IPdR per M^2/day
[13] = schedule B, single oral dose 1.20 Grams IPdR per M^2/day
[14] = schedule C, single oral dose 0.60 Grams IPdR per M^2/day
[15] = schedule D, single oral dose 0.30 Grams IPdR per M^2/day
[16] = schedule E, single oral dose 0.15 Grams IPdR per M^2/day

Compound: NC(=O)c1cccc(N)c1 [3-amino-benzamide]
- mode of inhibition (PARP1 [1]; Lineweaver-Burk plot, lines intersect vertical axis at control point): in competition with the substrate

Compound: O=c1[nH]c(=O)n([C@H]2C[C@H](O)[C@@H](CO)O2)cc1Br [Bromodeoxyuridine, 5-bromodeoxyuridine]
- pKi (PARP1 [1]; intercept of Lineweaver-Burk plot, 50 micromolar inhibitor, pH 7.3, read-out: inhibition constant): 4.52 to 5.00
- total number of cells per field [2]: < 50 cells per field
- total number of cells per field [3]: < 50 cells per field
- pIC50 (PARP1 [4]): 4.82
- pIC50 (PARP1 [5]): 4.24
- pKi (PARP1 [6]): 4.46
- objective improvement (Unresectable Sarcoma): 20%
- subjective improvement (Unresectable Sarcoma): 20%
- reported HAT inhibitory effect: inhibition (PARP1 [7]): 1 mM = 97% inhibition
- reported HAT inhibitory effect (PARP1 [8]): 50 mM blocks hormone sensitization

Compound: O=c1[nH]cc(Br)c(=O)[nH]1 [Bromouracil, 5-bromouracil]
- catabolite concentration accumulated in patient plasma [9]: ~100 µM
- inhibition of PARP1 enzymatic activity (PARP1 [10]): demonstrated capacity to inhibit PARP1 enzymatic activity

Compound: O=c1ncc(I)cn1[C@H]1C[C@H](O)[C@@H](CO)O1 [IPdR, 5-iodo-2-pyrimidinone-2′-deoxyribose]
- IU AUC [11, 12]: 1057.8 µM·h
- IdU AUC [11, 12]: 12.2 µM·h
- [IU] plasma (iodouracil), average maximum concentration [11, 12]: 133 µM
- [IdU] plasma, average maximum concentration [11, 12]: 4.0 µM
- IU AUC [11, 13]: 102.7 µM·h
- IdU AUC [11, 13]: 4.7 µM·h
- [IU] plasma (iodouracil), average maximum concentration [11, 13]: 34.2 µM
- [IdU] plasma, average maximum concentration [11, 13]: 2.1 µM
- IU AUC [11, 14]: 17.2 µM·h
- IdU AUC [11, 14]: 3.2 µM·h
- [IU] plasma (iodouracil), average maximum concentration [11, 14]: 4.5 µM
- [IdU] plasma, average maximum concentration [11, 14]: 1.8 µM
- IU AUC [11, 15]: 4.5 µM·h
- IdU AUC [11, 15]: 0.3 µM·h
- [IU] plasma (iodouracil), average maximum concentration [11, 15]: 0.8 µM
- [IdU] plasma, average maximum concentration [11, 15]: 0.3 µM
- IU AUC [11, 16]: 1.0 µM·h
- IdU AUC [11, 16]: 1.7 µM·h
- [IU] plasma (iodouracil), average maximum concentration [11, 16]: 0.2 µM
- [IdU] plasma, average maximum concentration [11, 16]: 0.8 µM
- time to average peak concentration of iododeoxyuridine in patient plasma ([11]; single oral dose of IPdR): ≤ 2 h

Compound: O=c1[nH]cc(I)c(=O)[nH]1 [Iodouracil, 5-iodouracil]
- catabolite concentration accumulated in patient plasma [9]: ~100 µM
- inhibition of PARP1 enzymatic activity (PARP1 [10]): demonstrated capacity to inhibit PARP1 enzymatic activity

Compound: Cc1cn([C@H]2C[C@H](O)[C@@H](CO)O2)c(=O)[nH]c1=O [Thymidine, thymidine]
- concentration that induces HeLa cells to attach, flatten and undergo cell death and disintegration (HeLa cells): > 1.0 millimolar
